In patent US8685974B2 (Bayer CropScience AG, priority 2009, dated 2014):
Where a name gives a salt, the structure may show the parent alone.

Assay: physchem

| SMILES | log p (pH 2.7) | further results |
| --- | --- | --- |
| CCn1cc(I)c(-c2cc(Cl)cs2)n1 [3-(4-Chloro-2-thienyl)-1-ethyl-4-iodo-1H-pyrazole] | 4.02 |  |
| CCC[CH2][Sn]([CH2]CCC)([CH2]CCC)[c]1c(-c2ccncc2)cnn1C1CCCCO1 (stereo not drawn) [4-[1-(tetrahydro-2H-pyran-2-yl)-5-(tributylstannyl)-1H-pyrazol-4-yl]pyridine] | 4.89 |  |
| CCCc1nn(C)c(-c2sccc2C)c1I [4-Iodo-1-methyl-5-(3-methyl-2-thienyl)-3-propyl-1H-pyrazole] | 4.27 |  |
| CC(C)n1cc(I)c(-c2cccs2)n1 [4-Iodo-1-isopropyl-3-(2-thienyl)-1H-pyrazole] | 3.71 |  |
| CCCn1ccc(-c2cccs2)n1 [1-Propyl-3-(2-thienyl)-1H-pyrazole] | 2.58 |  |
| Cc1csc(-c2nn(C)cc2I)c1 [4-Iodo-1-methyl-3-(4-methyl-2-thienyl)-1H-pyrazole] | 3.18 |  |
| CCCc1cc(-c2cccs2)n(C)n1 [1-Methyl-3-propyl-5-(2-thienyl)-1H-pyrazole] | 2.9 |  |
| Clc1ccc(-c2nn(C3CC3)cc2-c2ccncc2)s1 [4-[1-Cyclopropyl-3-(5-chloro-2-thienyl)-1H-pyrazol-4-yl]pyridine] | 1.62 |  |
| CC(C)n1nc(-c2ccc(Cl)s2)c(-c2ccncc2)c1C1CC1 [4-[5-Cyclopropyl-1-isopropyl-3-(5-chloro-2-thienyl)-1H-pyrazol-4-yl]pyridine] | 2.44 |  |
| CSc1ccc(-c2nn(C(C)C)cc2-c2ccncc2)s1 [4-[1-Isopropyl-3-(5-methylsulfanyl-2-thienyl)-1H-pyrazol-4-yl]pyridine] | 1.79 |  |
| CCn1ccc(-c2cc(C)cs2)n1 [1-Ethyl-3-(4-methyl-2-thienyl)-1H-pyrazole] | 2.64 |  |
| CCn1nccc1-c1cccs1 [1-Ethyl-5-(2-thienyl)-1H-pyrazole] | 2.18 |  |
| Cc1csc(-c2ccn(C)n2)c1 [1-Methyl-3-(4-methyl-2-thienyl)-1H-pyrazole] | 2.14 |  |
| Cc1csc(-c2ccnn2C(C)C)c1 [1-Isopropyl-5-(4-methyl-2-thienyl)-1H-pyrazole] | 3.18 |  |
| CCn1cc(-c2ccncc2)c(-c2cccs2)n1 [Example 148, 4-[1-Ethyl-3-(2-thienyl)-1H-pyrazol-4-yl]pyridine] |  | chromatographic logP (pH 2.7): 0.75; chromatographic logP (pH 7.8): 2.06 |
| CCC(C)n1cc(-c2ccncc2)c(-c2ccc(Cl)s2)n1 (stereo not drawn) [4-[1-sec-Butyl-3-(5-chloro-2-thienyl)-1H-pyrazol-4-yl]pyridine] | 2.1 |  |
| Ic1c[nH]nc1-c1cccs1 [4-Iodo-3-(2-thienyl)-1H-pyrazole] | 2.1 |  |
| CCn1cc(I)c(-c2cc(C)cs2)n1 [1-Ethyl-4-iodo-3-(4-methyl-2-thienyl)-1H-pyrazole] | 3.7 |  |
| CC#Cc1[nH]nc(-c2ccc(Cl)s2)c1-c1ccncc1 [4-[3-(5-Chloro-2-thienyl)-5-(prop-1-yn-1-yl)-1H-pyrazol-4-yl]pyridine] | 1.44 |  |
| CC(C)n1nc(C2CC2)c(-c2ccncc2)c1-c1ccc(Cl)s1 [4-[3-Cyclopropyl-1-isopropyl-5-(5-chloro-2-thienyl)-1H-pyrazol-4-yl]pyridine] | 2.44 |  |
| Fc1ccc(-c2n[nH]cc2-c2ccncc2)s1 [4-[3-(5-Fluoro-2-thienyl)-1H-pyrazol-4-yl]pyridine] | 0.57 |  |
| CN(C)C=CC(=O)c1cc(Br)c(Br)s1 [1-(4,5-Dibromo-2-thienyl)-3-(dimethylamino)prop-2-en-1-one] | 2.68 |  |

| SMILES | log p (pH 2.7) | further results |
| --- | --- | --- |
| CC(C)n1cc(-c2ccnc(S(C)(=O)=O)n2)c(-c2ccc(Cl)s2)n1 [4-[3-(5-Chloro-2-thienyl)-1-isopropyl-1H-pyrazol-4-yl]-2-(methylsulfonyl)pyrimidine] | 3.15 |  |
| CC(C)Cn1cc(-c2ccnc(N(C(=O)C3CC3)C(=O)C3CC3)c2)c(-c2ccc(Cl)s2)n1 [N-{4-[3-(5-chloro-2-thienyl)-1-isobutyl-1H-pyrazol-4-yl]pyridin-2-yl}-N-(cyclopropylcarbonyl)cyclopropanecarboxamide] | 4.75 |  |
| FC(F)(F)c1ccc(-c2n[nH]cc2-c2ccncc2)s1 [4-[3-(5-trifluoromethyl-2-thienyl)-1H-pyrazol-4-yl]pyridine hydrochloride] | 1.34 |  |
| O=C(Cc1ccncc1)c1ccc(Cl)s1 [1-(5-chloro-2-thienyl)-2-(pyridin-4-yl)ethanone] | 1.17 |  |
| CC(C)Cn1cc(-c2ccnc3ccccc23)c(-c2ccc(Cl)s2)n1 [4-[3-(5-chloro-2-thienyl)-1-isobutyl-1H-pyrazol-4-yl]quinoline] | 3.69 |  |
| CCCn1cc(I)c(-c2cccs2)n1 [4-Iodo-1-propyl-3-(2-thienyl)-1H-pyrazole] | 3.65 |  |
| CC(C)n1ccc(-c2cccs2)n1 [1-Isopropyl-3-(2-thienyl)-1H-pyrazole] | 2.66 |  |
| Brc1cc(-c2cc[nH]n2)sc1Br [3-(4,5-Dibromo-2-thienyl)-1H-pyrazole] | 2.74 |  |
| CCC(=O)Nc1cc(-c2cn(CC)nc2-c2cccs2)ccn1 [Example 149, N-{4-[1-Ethyl-3-(2-thienyl)-1H-pyrazol-4-yl]pyridin-2-yl}propanamide] |  | chromatographic logP (pH 2.7): 1.65; chromatographic logP (pH 7.8): 2.26 |
| Clc1ccc(-c2n[nH]c(C3CC3)c2-c2ccncc2)s1 [4-[3-(5-Chloro-2-thienyl)-5-cyclopropyl-1H-pyrazol-4-yl]pyridine] | 1.29 |  |
| CC(C)Nc1nccc(CC(=O)c2ccc(Cl)s2)n1 | 2.37 |  |
| CCC(C)n1ccc(-c2cc(C)cs2)n1 (stereo not drawn) [1-sec-Butyl-3-(4-methyl-2-thienyl)-1H-pyrazole] | 3.63 |  |
| CSc1nccc(-c2cn(C(C)C)nc2-c2ccc(Cl)s2)n1 [4-[3-(5-Chloro-2-thienyl)-1-isopropyl-1H-pyrazol-4-yl]-2-(methylsulfanyl)pyrimidine] | 4.44 |  |
| CC(C)n1cc(-c2ccncc2)c(-c2ccc(F)s2)n1 [4-[1-Isopropyl-3-(5-fluoro-2-thienyl)-1H-pyrazol-4-yl]pyridine] | 1.53 |  |
| O=C(Cc1ccnc(Cl)n1)c1ccc(Cl)s1 [2-(2-Chloropyrimidin-4-yl)-1-(5-chloro-2-thienyl)ethanone] | 2.6 |  |
| CCC(C)n1nc(-c2ccc(Cl)s2)c(-c2ccncc2)c1Cl (stereo not drawn) [4-[5-Chloro-1-secbutyl-3-(5-chloro-2-thienyl)-1H-pyrazol-4-yl]pyridine] | 3.44 |  |
| CC(C)n1cc(-c2ccncc2)c(-c2ccc(Cl)s2)n1 [4-[1-Isopropyl-3-(5-chloro-2-thienyl)-1H-pyrazol-4-yl]pyridine] | 1.82 |  |
| CC(=O)Nc1nccc(-c2cn(C(C)C)nc2-c2ccc(Cl)s2)n1 [N-{4-[3-(5-Chloro-2-thienyl)-1-isopropyl-1H-pyrazol-4-yl]pyrimidin-2-yl}acetamide] | 2.59 |  |
| CCn1ccc(-c2cc(Br)cs2)n1 [3-(4-Bromo-2-thienyl)-1-ethyl-1H-pyrazole] | 3.04 |  |
| CCC(C)n1ncc(-c2ccncc2)c1-c1ccc(F)s1 (stereo not drawn) [4-[1-sec-butyl-5-(5-fluoro-2-thienyl)-1H-pyrazol-4-yl]pyridine] | 1.84 |  |
| CCC(C)n1nccc1-c1cc(C)cs1 (stereo not drawn) [1-sec-Butyl-5-(4-methyl-2-thienyl)-1H-pyrazole] | 3.65 |  |
| CC(C)n1ncc(-c2ccncc2)c1-c1ccc(Cl)s1 [4-[1-Isopropyl-5-(5-chloro-2-thienyl)-1H-pyrazol-4-yl]pyridine] | 1.7 |  |

| SMILES | log p (pH 2.7) | further results |
| --- | --- | --- |
| CCC(C)n1cc(-c2ccnc(C(=O)NC(C)C)c2)c(-c2ccc(Cl)s2)n1 (stereo not drawn) [4-[1-sec-Butyl-3-(5-chloro-2-thienyl)-1H-pyrazol-4-yl]-N-isopropylpyridine-2-carboxamide] | 4.82 |  |
| CCn1nccc1-c1cc(C)cs1 [1-Ethyl-5-(4-methyl-2-thienyl)-1H-pyrazole] | 2.68 |  |
| Brc1ccc(-c2n[nH]cc2-c2ccncc2)s1 [4-[3-(5-Bromo-2-thienyl)-1H-pyrazol-4-yl]pyridine] | 0.94 |  |
| CCC(C)n1nccc1-c1cccs1 (stereo not drawn) [1-sec-Butyl-5-(2-thienyl)-1H-pyrazole] | 2.97 |  |
| Cc1csc(-c2cc[nH]n2)c1 [3-(4-Methyl-2-thienyl)-1H-pyrazole] | 1.72 |  |
| CCCc1cc(-c2cccs2)nn1C [1-Methyl-5-propyl-3-(2-thienyl)-1H-pyrazole] | 2.9 |  |
| CCCc1cc(-c2sccc2C)nn1C [1-Methyl-3-(3-methyl-2-thienyl)-5-propyl-1H-pyrazole] | 3.34 |  |
| Clc1ccc(-c2n[nH]cc2-c2ccncc2)s1 [4-[3-(5-chloro-2-thienyl)-1H-pyrazol-4-yl]pyridine] | 0.9 |  |
| Cc1n[nH]c(-c2ccc(Cl)s2)c1-c1ccncc1 [4-[5-(5-Chloro-2-thienyl)-3-methyl-1H-pyrazol-4-yl]pyridine] | 1.07 |  |
| CC(C)Cn1cc(-c2ccncc2)c(-c2ccc(Br)s2)n1 [4-[1-isobutyl-3-(5-bromo-2-thienyl)-1H-pyrazol-4-yl]pyridine] | 2.04 |  |
| CC(C)Cn1cc(-c2ccncc2)c(-c2ccc(C#N)s2)n1 [4-[1-Isobutyl-3-(5-cyano-2-thienyl)-1H-pyrazol-4-yl]pyridine] | 1.74 |  |
| CCCn1nccc1-c1cccs1 [1-Propyl-5-(2-thienyl)-1H-pyrazole] | 2.64 |  |
| CCC(C)n1nc(-c2ccc(Cl)s2)c(-c2ccncc2)c1F (stereo not drawn) [4-[3-(5-Chloro-2-thienyl)-5-fluoro-1-secbutyl-1H-pyrazol-4-yl]pyridine] | 2.61 |  |
| CCC(C)n1nc(-c2ccc(Cl)s2)c(-c2ccncc2)c1SC (stereo not drawn) [4-[3-(5-Chloro-2-thienyl)-5-methylsulfanyl-1-secbutyl-1H-pyrazol-4-yl]pyridine] | 3.35 |  |
| Cc1csc(-c2ccnn2C)c1 [1-Methyl-5-(4-methyl-2-thienyl)-1H-pyrazole] | 2.26 |  |
| CCCc1c(I)c(-c2cccs2)nn1C [4-Iodo-1-methyl-5-propyl-3-(2-thienyl)-1H-pyrazole] | 3.92 |  |
| Brc1csc(-c2cc[nH]n2)c1 [3-(4-Bromo-2-thienyl)-1H-pyrazole] | 1.99 |  |
| CN(C)C=CC(=O)c1cc(Cl)cs1 [1-(4-Chloro-2-thienyl)-3-(dimethylamino)prop-2-en-1-one] | 1.86 |  |
| Cc1c(Br)c(-c2ccc(Cl)s2)nn1C(C)C [4-Bromo-3-(5-chloro-2-thienyl)-1-isopropyl-5-methyl-1H-pyrazole] | 5.35 |  |
| CC(C)Cn1cc(-c2cc(N)ncn2)c(-c2ccc(Cl)s2)n1 [6-[3-(5-chloro-2-thienyl)-1-isobutyl-1H-pyrazol-4-yl]pyrimidin-4-amine] | 1.97 |  |
